SMILES | melting point
CC(=O)OC1CSC(Oc2c(C#N)ccnc2C)C(OC(C)=O)C1OC(C)=O (centres undefined) | 109 to 113 °C
Nc1cc(N)cc(C(c2c(O)c3c(oc2=O)CCCCCC3)C2CC2)c1 (centres undefined) | 87 °C
C#CC(C)NC(=O)CCCCl (centres undefined) | 50 to 51 °C
CN1CC[C@]2(c3ccccc3)CCCC[C@H]2C1 (relative stereo) | 72 to 73 °C
Cc1cc(C(=O)c2[nH]c(=O)[nH]c(=O)c2C(C)C)cc([N+](=O)[O-])c1 | 124 to 125 °C
CCOC(=O)CC(=O)COCC1=C(C(=O)OCC)C(c2cccc(Cl)c2Cl)C(C(=O)OC)=C(C)N1 (centres undefined) | 99 to 102 °C
CCOC(=O)Oc1cccc(OC)c1Cl | 75 to 76 °C
O=C(O)CCc1oc(SC2CCCCC2)nc1-c1ccc(Cl)cc1 | 136 to 137 °C
CCOC(=O)C1=CNC2=C(C(=O)CCC2)C1c1nccs1 (centres undefined) | 239 to 240 °C
CS(=O)(=O)NC(=O)N1CC1C#N (centres undefined) | 110 to 112 °C
Nc1ccccc1NCCO | 105 to 106 °C
CCOC(=O)C1(C)OC(C)=C(O)C1=O (centres undefined) | 89.2 to 89.5 °C
O=C(O)CCCC(=O)NCC1(S)CCCCC1 | 73 to 74 °C
COC(=O)Nc1cc(NC(=O)NSC(=S)N(C)C)ccc1C | 180 to 185 °C
CC1(C)Cc2cccc(OCCCBr)c2O1 | 54 to 56 °C
Cn1cc2c(CO)c(Br)ccc2n1 | 123 to 125 °C
Cc1cccc(C)c1N(CC(C)N)S(C)(=O)=O (centres undefined) | 106 to 109 °C

SMILES | melting point
c1ccc(C2=NN=C(N3CCOCC3)SC2)cc1 | 173 to 174 °C
CN(C)C=NS(=O)(=O)c1cc(C(C)(C)C)cc(C=O)c1O | 182 to 183 °C
CCCCOC(=O)c1ccc(F)nc1N | 132 to 134 °C
O=c1cnc2c(NC(CO)CO)nc(SCc3cccs3)nc2[nH]1 | 220 to 223 °C
Cc1cc2c(c3c1NC(=O)CC3)OC(CN(C)C(=O)CCCO)C2 (centres undefined) | 141 to 143 °C
COC1(c2csc(Sc3ccc(/C(C)=N/O)cn3)c2)CCOCC1 | 151 to 153 °C
CCc1cc(=O)c2nc(OC)ccc2[nH]1 | 279 to 281 °C
CC(=O)Nn1cnn(C2CCc3ccccc3C2)c1=S (centres undefined) | 199 to 201 °C
O=C1CSc2ccc(S(=O)(=O)Cl)cc2N1 | 165 to 167 °C
CCn1c(C=NNC(N)=S)cnc1[N+](=O)[O-] | 220 to 222 °C
CCOC(=O)c1nc(C)n2c1CN=C(c1ccccc1Cl)c1cc([N+](=O)[O-])ccc1-2 | 233 to 234 °C
Nc1sc2c(c1C(=O)c1cccs1)CCCC2 | 115 to 118 °C
CN1CCOc2cccc3nc4c(c1c23)CCCC4 | 97 to 98 °C
CCCCCCCCCCCCc1nnn(C(C)C(=O)Nc2c(OC)cc(OC)cc2OC)n1 (centres undefined) | 155 to 157 °C
CCC(=O)Nc1ccc(C(=O)CC)cc1 | 154 to 155 °C
C[C@H]1CCCC(C)(C)[C@@H]1C(=O)c1ccc(C#N)c(F)c1 | 53 to 56 °C

Now from value to compound:

melting point | SMILES
218 to 219 °C | CN(C(=O)Nc1nc(OCC(F)(F)F)nc(OCC(F)(F)F)n1)c1ccc(Cl)cc1
190 to 191 °C | CCc1nc2cnc3cc(OCC(=O)N4CCOCC4)ccc3c2n1CCOc1ccccc1
305 to 310 °C | COc1cc2c(=O)c(C#N)c[nH]c2cc1NC(C)=O
152 to 153 °C | Cc1onc(-c2ccc(Br)cc2)c1-c1ccc(S(N)(=O)=O)cc1
145 °C | O=c1ccc(-c2ccc(F)cc2)nn1CCF
135 to 136 °C | Cn1ccc(-c2cc(OC(F)F)n(-c3ccc(NC(=O)c4ccncc4F)cc3)n2)c1
164 to 165 °C | CCn1c2ccccc2c2cc(C=C(C#N)c3cc(C(F)(F)F)cc(C(F)(F)F)c3)ccc21
256 to 258 °C | CC1(C)C(=O)Nc2ccc(C3(C#N)C=CC=N3)cc21 (centres undefined)
160 to 162 °C | CCOC(=O)c1nc(-c2ccc(Cl)cc2Cl)n(-c2ccc(C(F)(F)F)cc2)c1C
106 to 108 °C | CC(C)(C)OC(=O)N(CCOc1cccc2[nH]cc(Cl)c12)Cc1ccccc1
248 to 250 °C | CS(=O)c1ncc2ccc(=O)n(-c3ccccc3)c2n1 (centres undefined)
104 to 106 °C | COc1ccc(-c2cc(C)c3nc(OC)ccc3c2)cc1
> 250 °C | CCOC(=O)Cn1c(=O)c(=O)[nH]c2ccc3ccc([N+](=O)[O-])cc3c21
238 °C | Cc1ccc(-c2nc(CN3CCN(C(c4ccccc4)c4ccccc4)CC3)c(C)[nH]2)cc1
208 to 210 °C | CC1(C(=O)N2CCC(n3c(=O)[nH]c4ccccc43)CC2)OCc2ccccc2-n2cccc21 (centres undefined)
112 to 114 °C | COc1cccc(COCCC(C(=O)O)c2ccccc2)c1 (centres undefined)
267 to 268 °C | Cc1ccc2nc(NC(=O)c3ccc(C(C)(C)CCc4noc(=O)[nH]4)cc3)cn2c1
131 to 133 °C | CC(=O)OC1CSC(Oc2cccc(-c3cn(C)nc3C(F)(F)F)c2)C(OC(C)=O)C1OC(C)=O (centres undefined)
122 to 123 °C | C(=C\c1nc(COc2ccc(CCCn3ccnc3)cc2)co1)/c1ccco1
187 to 192 °C | Cc1ccc(NC(=O)c2ccc(CN3CCN(C)C(=O)C3)cc2)cc1Nc1nccc(-c2cccnc2)n1
115 °C | O=C(Sc1ccccn1)c1ccncc1

melting point | SMILES
119 to 121 °C | CCCC(=O)c1cnc2c(OC)cccc2c1Nc1ccsc1CC
156 °C | CCOC(=O)c1c(N2CCN(C)CC2)c2cc(F)ccc2n(Cc2ccccc2)c1=O
204 to 206 °C | CCOC(=O)Cc1ccc(N2Cc3ccccc3C2=N)cc1
110 to 113 °C | CCCCCNC(=O)C(C)Cc1ccc2c(c1)c(Cc1ccc(C(=O)NS(=O)(=O)c3ccccc3C)cc1OC)cn2C (centres undefined)
275 to 280 °C | O=C(O)c1ccccc1Nc1ccncc1
254 °C | CN1CCC(NC(c2cccc([N+](=O)[O-])c2)c2nc3ccccc3[nH]2)CC1 (centres undefined)
220 to 221 °C | O=C1C[C@]2(CCCC[C@H]2Cc2ccccc2)S(=O)(=O)CCN1Cc1cccnc1
206 °C | O=c1c(CCCCO)c(O)c2cccnc2n1-c1ccccc1
258 to 261 °C | CNc1ncc2c(-c3cccc(Cl)c3)cc(-c3cccc(CC(=O)O)c3)c(OC)c2n1
300 to 302 °C | O=C(Nc1ccc(F)cc1)N1CC2C(C1)C2Nc1ncc2cc(-c3ccccc3Cl)c(=O)n(-c3ccc(F)cc3)c2n1 (centres undefined)
181 to 184 °C | Fc1ccc(-c2cc(-c3cccs3)[nH]n2)cc1
174 to 175 °C | CC(C)Cn1c(=O)n(C)c(=O)c2c(S(=O)(=O)CCCC(=O)O)c(Cc3cccc4ccccc34)sc21
86 to 88 °C | C=C(c1ccc(NC(=O)OC(C)(C)C)c(C)c1)C(F)(F)F
158 °C | N#CC1=C(c2ccccc2)Nc2n[nH]cc2C1c1ccccc1Cl (centres undefined)
289 to 290 °C | Cn1cc(-c2cc3nccnc3[nH]2)c2cc(O)ccc21
154 to 155 °C | Cc1ccc(-c2ccc3c(c2)C=C(C(=O)Nc2ccc(CNCC4CCCCC4)cc2)CCO3)cc1
146 °C | COc1ccc(CN2C(=O)N([C@H](C)c3ccccc3)[C@H]3COC(=O)[C@H]32)cc1
207 to 208 °C | COc1ccc(N2CCN(Cc3ccc(NC(=O)/C=C/c4cccc(-c5ccc(C)cc5)c4)cc3)CC2)cc1
127 to 129 °C | O=C(OCc1ccccc1)c1ccc2[nH]ccc2c1
129 °C | COc1ccc(Cc2nc3c(cnn3C(CCCc3ccccc3)C(C)=O)c(=O)[nH]2)cc1 (centres undefined)
